In patent US20230277553A1, “THERAPEUTIC COMPOSITION OF CURE-PRO COMPOUNDS FOR TARGETED DEGRADATION OF BET DOMAIN PROTEINS, AND METHODS OF MAKING AND USAGE” (CORNELL UNIVERSITY, priority 2020, published 2023):
Entries after “also recorded” stand apart in the source; their conditions may differ.

How the values were obtained:
Assay type in all cases: cell-based
Parameters in all cases: endogenous in cells
[1] = molecular target: T1, BRD4 (Homo sapiens, UniProt O60885); assay: CURE-PRO-mediated BRD4 degradation with MDM2 ligands, Western blot, HCT116 cells; settings: for BRD4 degradation, in combination with MDM2 ligands 8310 and 8312 (Western blot): HCT116, 24 h, 1:1, 10 μM; for Selectivity of degradation within the BRD protein family, with MDM2 ligands: HCT116, Western blot, with 8310 / 8312
Description: Anti-BRD4 (13440, 1:1,000 dilution for Western Blot and 1:25 dilution for ProteinSimple); Anti-BRD2 (5848 1:1,000 dilution for Western Blot and 1:25 dilution for ProteinSimple); β-Actin (3700, 1:2,000 dilution for Western Blot), β-Actin (4970, 1:50 dilution for ProteinSimple) anti-mouse IgG-HRP, and anti-rabbit IgG-HRP antibodies were purchased Cell Signaling Technology. Anti-GAPDH (600-401-A33, 1:100 dilution for ProteinSimple) was purchased from Rockland Immunochemicals, Inc. Anti-BRD3 (sc-81202, 1:200 dilution for Western Blot) was purchased from Santa Cruz Biotechnology.
HeLa, MCF7, or HCT116 cells (2.5-3×10^6) were treated for 24 hours with the indicated compounds solubilized in DMSO. The cells were washed in ice-cold PBS and were then lysed in RIPA lysis buffer (150 mM NaCl, 5 mM EDTA, 1% NP-40, 0.5% sodium deoxycholate, 0.1% SDS, 50 mM Tris, pH 8.0.) with Roche protease inhibitor complete cocktail and phosphatase inhibitors (10 mM sodium fluoride, 10 mM sodium pyrophosphate, 1 mM sodium orthovanadate and 20 mM β-glycerophosphate). The total protein concentrations were determined by Bradford Protein Assay and 10-20 μg of protein was loaded onto 4-15% Tris-Glycine gradient gels (Biorad). After standard gel electrophoresis, the separated proteins were transferred to PVDF membrane by wet transfer. The immunoblots were then blocked for 1 hour in 5% skim milk in TBST or 5% BSA in TBST, according to manufacturer's instructions, before an overnight incubation at 4° C. with indicated antibodies and membranes. Membranes were then incubated with the appropriate horseradish peroxidase-conjugated secondary antibodies (1:5,000 dilution) for 1 h at room temperature and the bands were visualized using the Clarity Max Western ECL Substrate (Biorad) and the ChemiDoc Imaging System (Biorad). Signal was detected with ECL Western Blotting Substrate (Pierce) and X-ray film processed with a Konica SRX-101 X-ray film processor or captured by Bio-Rad's Chemidoc Imaging system.
(§1) HCT116 cells (3×10^6) were treated for 24 hours with the compounds solubilized in DMSO. Compounds were added at 100 nM-10 μM each. Standardized protein samples were electrophoresed and imaged as described in the Immunoblotting section above. FIGS. 64 and 65 depict the concentration-dependence of CURE-PRO-mediated BRD2 and BRD3 degradation using MDM2 ligands.

[2] = molecular target: T1, BRD4; assay: Summary of BRD4 degradation by CURE-PRO pairs, estimated from Western Blot or WES (Proteinsimple); settings: for Degradation of BRD4 in combination with MDM2 ligand [drawing 423] / Degradation of BRD4 in combination with MDM2 ligand [drawing 424]: Table 5, aryl-boronic acid-containing MDM2 ligand; for Degradation of BRD4 in combination with MDM2 ligand [drawing 423]: first drawing (8310); for Degradation of BRD4 in combination with MDM2 ligand [drawing 424]: second drawing (8312)
Description: A black check mark indicates efficacy of 30% to 70% or higher protein degradation.

[3] = molecular target: T1, BRD4; assay: CURE-PRO-mediated BRD4 degradation with MDM2 ligands, WES (ProteinSimple), HCT116 cells; settings: HCT116, 24 h, WES; for BRD4 degradation, in combination with MDM2 ligand 8310: 1:1 with 8310, 10 μM; for BRD4 degradation, in combination with MDM2 ligand 8312: 1:1 with 8312, 10 μM
Protocol: All cell lines were purchased from ATCC or DSMZ and grown at 37° C. with 5% CO2. Human HeLa cells were cultured in complete growth medium (Dulbecco's modified Eagle's medium (DMEM) supplemented with 10% FBS); MCF7 cells were cultured in complete growth medium (Dulbecco's modified Eagle's medium (DMEM) supplemented with 10% FBS and 0.01 mg/ml human recombinant insulin (Sigma Aldrich); Namalwa and MOLM-13 cells were cultured in complete growth medium (RPMI 1640 medium supplemented with 10% FBS); MV-4-11 were cultured in complete growth medium (Iscove's Modified Dulbecco's medium, supplemented with 10% FBS); HCT116 cells were cultured in complete growth medium (McCoy's 5a Medium supplemented with 10% FBS). For cellular degradation of BRD4 studies, cells were seeded in a 12-well plate at 70-80% confluency, allowed to attach overnight, and incubated with the indicated compounds for the indicated time. When indicated, a 15-minute pretreatment with 10 μM pomalidomide, 10 μM VHL298, 10 μM Nutlin3a, 1 μM MG-132 or 1 μM Carfilzomib was performed before the addition of CURE-PROs. For washout studies, after CURE-PRO treatment, media was aspirated and incubated with complete medium for the indicated time before lysis.
WES Simple analysis was performed on WES system (ProteinSimple-Biotechne) according to the manufacturer's instructions. Total protein concentrations of cell lysates were determined by the Pierce BCA kit (Thermo Fisher). 3 μL of 0.3 μg/μL of the protein lysate was loaded onto a 12- to 230-kDa WES assay plate (ProteinSimple) where 300 nL sample was withdrawn through a capillary, subjected to electrophoretic separation of proteins by size, and followed by the simultaneous, HRP-based detection of proteins using the Anti-Rabbit Detection Module (Proteinsimple: #DM-001). The electropherograms were checked then the automatic peak detection was manually corrected if it was required.
as §1, with “1 μM-10” for “100 nM-10”, “WES ProteinSimple” for “Immunoblotting”, “59, 60,” for “64”, “61” for “65”, “BRD4” for “BRD2 and BRD3”
as §1, with “1 μM-10” for “100 nM-10”, “WES ProteinSimple” for “Immunoblotting”, “62” for “64”, “63” for “65”, “BRD4” for “BRD2 and BRD3”
HCT116 cells (3×10^6) were treated for 24 hours with the compounds solubilized in DMSO. CURE-PRO monomers were added at 10 μM each and the proteasomal inhibitors at 1 μM. Standardized protein samples were electrophoresed and imaged as described in the WES ProteinSimple section above. FIG. 68 depicts the dependence of the proteasome for CURE-PRO-mediated BRD4 degradation.

Row | SMILES | BRD4 degradation, in combination with MDM2 ligands 8310 and 8312 (Western blot) [1] | Selectivity of degradation within the BRD protein family, with MDM2 ligands [1] | Degradation of BRD4 in combination with CRBN ligand [drawing 407] ([2]; Table 4, aryl-boronic acid-containing CRBN ligand, first drawing (by text: 8048)) | Degradation of BRD4 in combination with MDM2 ligand [drawing 423] [2] | Degradation of BRD4 in combination with MDM2 ligand [drawing 424] [2] | BRD4 degradation, in combination with MDM2 ligand 8310 [3] | BRD4 degradation, in combination with MDM2 ligand 8312 [3] | Degradation of BRD4 in combination with CRBN ligand [drawing 372] ([2]; Table 1, CRBN ligand, third drawing (8066)) | Degradation of BRD4 in combination with CRBN ligand [drawing 370] ([2]; Table 1, aromatic 1,2-diol- or hindered cis-1,2-diol-containing CRBN ligand, first drawing (8046)) | Degradation of BRD4 in combination with VHL ligand [drawing 397] ([2]; Table 3, aromatic 1,2-diol-containing VHL ligand, second drawing (8305)) | BRD4 degradation, in combination with MDM2 ligand 8313 ([3]; 1:1 with 8313, 1-10 μM each) | BRD4 degradation, in combination with MDM2 ligand 8314 ([3]; 1:1 with 8314, 1-10 μM each)
1 | CCNC(=O)C[C@@H]1N=C(c2ccc(Cl)cc2)c2cc(OCCOCCNC(=O)c3cccc(O)c3O)ccc2-n2c(C)nnc21 [BRD-N39, N-(2-(2-(((4S)-6-(4-chlorophenyl)-4-(2-(ethylamino)-2-oxoethyl)-1-methyl-4H-benzo[f][1,2,4]triazolo[4,3-a][1,4]diazepin-8-yl)oxy)ethoxy)ethyl)-2,3-dihydroxybenzamide] | caused BRD4 degradation; also recorded: Degradation is evident | some selectivity for BRD4 over BRD2 and BRD3 | ✓ (A black check mark indicates efficacy of 30% to 70% or higher protein degradation) | ✓ (A black check mark indicates efficacy of 30% to 70% or higher protein degradation) | ✓ (A black check mark indicates efficacy of 30% to 70% or higher protein degradation) | caused BRD4 degradation | caused BRD4 degradation | – | – | – | – | –
2 | CCNC(=O)C[C@@H]1N=C(c2ccc(Cl)cc2)c2cc(OCCCCC(=O)Nc3cccc(B(O)O)c3)ccc2-n2c(C)nnc21 [BRD-E20, (3-(5-(((4S)-6-(4-chlorophenyl)-4-(2-(ethylamino)-2-oxoethyl)-1-methyl-4H-benzo[f][1,2,4]triazolo[4,3-a][1,4]diazepin-8-yl)oxy)pentanamido)phenyl)boronic acid] | – | – | – | – | – | – | – | ✓ (A black check mark indicates efficacy of 30% to 70% or higher protein degradation) | ✓ (A black check mark indicates efficacy of 30% to 70% or higher protein degradation) | ✓ (A black check mark indicates efficacy of 30% to 70% or higher protein degradation) | had no effect on BRD4 protein levels | caused partial loss of the BRD4 protein; also recorded: Degradation is observed
3 | CCNC(=O)C[C@@H]1N=C(c2ccc(Cl)cc2)c2cc(OCCNC(=O)c3cccc(O)c3O)ccc2-n2c(C)nnc21 [BRD-N25] | caused BRD4 degradation; also recorded: Degradation is evident | some selectivity for BRD3 and BRD4 over BRD2 for 8310 | – | ✓ (A black check mark indicates efficacy of 30% to 70% or higher protein degradation) | ✓ (A black check mark indicates efficacy of 30% to 70% or higher protein degradation) | caused BRD4 degradation; also recorded: marked BRD4 degradation | caused BRD4 degradation | – | – | – | – | –
